# Earlier results, collected in US11345706B2, “Crystalline forms of Acalabrutinib” (Apotex Inc., priority 2017, dated 2022).
smiles,measurement,setting,value
"CC#CC(=O)N1CCC[C@H]1c1nc(-c2ccc(C(=O)Nc3ccccn3)cc2)c2c(N)nccn12 [Acalabrutinib, 4-{8-amino-3-[(2S)-1-(but-2-ynoyl)pyrrolidin-2-yl]imidazo[1,5-a]pyrazin-1-yl}-N-(pyridin-2-yl)benzamide]",Biopharmaceutics Classification System (BCS) solubility classification,,poorly soluble drug
same,pH-dependent solubility,"pH values of greater than 4, reported in U.S. Pat. No. 9,796,721 B2",practically insoluble
